The nature of data set [1]: Absolute and regional intestinal bioavailability of 5-HTP in humans (oral, colonic, intravenous dosing; plasma LC-MS). It is filed as in vivo. The settings on record: both sexes, other: colonic (by colonoscopy), human, colonic 200 mg vs IV 50 mg, read-out: absolute bioavailability (F), colonic dosing. How it is done: Determination of absolute and regional intestinal bioavailability of 5-HTP in humans.
(§1) 5-HTP dosing: The free base form of 5-HTP was used (5-HTP has a water solubility of >10 mg/mL).
Colonic: 5-HTP free base saline solution 200 mg.
Intravenous: 5-HTP free base saline solution 50 mg.
Oral/Upper GI: Two 5-HTP gelatin tablets of 100 mg 5-HTP free base (200 mg total dose).
Subjects: Healthy male and female volunteers aged 18 to 65 years with a body mass index (BMI) of 19 to 28 were eligible for the study. Subjects were admitted to the investigational medical unit (IMU) 2 h before 5-HTP administration and remained at the IMU for 24 h following, for blood sampling and safety assessment. […]
Plasma samples analysis: Plasma samples were stored at −80° C. until analysis. 5-HTP and the metabolite 5-hydroxyindole-acetic-acid (5-HIAA) were quantified by liquid chromatography with mass-spectrometry detection.
Data analysis: The PK data were analyzed using noncompartmental (NCA) and compartmental (mixed effects) mathematical modelling approaches, to calculate area 5-HTP plasma under the curve (AUC) for each subject for each 5-HTP administration.
Results: The human bioavailability of 5-HTP via the various routes of administration above was established in human subjects by administering 5-HTP through these various routes and quantifying the resultant 5-HTP plasma levels at various time points. […]

For data set [2] the following is noted: co-administration of 5-HTP and a peripheral decarboxylase inhibitor, in some cases; cited from earlier work.
Data set [3] is described as follows: Water solubility of 5-HTP free base. It is filed as physicochemical. The settings on record: free base form. How it is done:
as §1

For data set [4] the following is noted: mice; cited from earlier work.
A short description of data set [5]: Release rate calculation Rinput=(Css×Vd×kel)/F, Scenario 1 (5-HTP without peripheral decarboxylase inhibitor). Further details: species or system human. The source says:
As calculated above, the relative upper GI tract:colon bioavailability was 20% (corresponding to an absolute colonic bioavailability of 4%). Based on the above, according to general teachings in the field of sustained-release drug delivery (Sutton S C. The use of gastrointestinal intubation studies for controlled release development. Br J Clin Pharmacol. 2009 September; 68[3]: 342-54) it is concluded that gastroretentive technologies are needed in order to achieve a desirable extended release profile of 5-HTP together with a desirable sustained and therapeutically active 5-HTP plasma level profile. Further, the determination of the oral bioavailability (Fpo) enables computation of the delivery rate of 5-HTP needed from the dosage form to achieve a given plasma level of 5-HTP at steady state. Moreover, computation of the resultant plasma levels of 5-HTP can be done for embodiments where a peripheral decarboxylase inhibitor (with different levels of effects on 5-HTP bioavailability and elimination half-life) is included in the dosage form.
The desired release rate profile was calculated as follows, for a dosage form disclosed in the present invention when administering 5-HTP without a peripheral decarboxylase inhibitor:
Substituting, we get Rinput=˜25 mg/hr, to achieve average steady-state plasma concentrations of 5-HTP of 1 mg/L (1000 ng/ml).

Molecules are shown by their SMILES.

What is called bioavailability is the share of a dose that reaches the circulation, judged against a reference dose that is usually intravenous. One may read the solubility as the concentration that dissolves in the medium under given conditions. The low end stands for little dissolved substance, the high end for much dissolved substance. As for `N[C@@H](Cc1c[nH]c2ccc(O)cc12)C(=O)O` [5-HTP, 5-hydroxytryptophan], the bioavailability in data set [1] came out at 4%. In data set [2], the “increase of plasma 5-HTP levels by co-administration of a peripheral decarboxylase inhibitor” value is “one-fold to about fifteen-fold”. Further, in data set [3], the solubility is greater than 10000 µg/mL. Moreover, the “absorption in the colon” value in data set [4] was “very effectively absorbed”. Moreover, the “Rinput, release rate of 5-HTP needed for average steady-state plasma concentration of 1 mg/L (1000 ng/ml)” value in data set [5] (Scenario 1: F ~0.2 oral, Vd ~10 L, kel 0.462 h^−1, no peripheral decarboxylase inhibitor) is roughly 25 mg/h. Also, the “kel, elimination rate constant” value in data set [5] (calculated from plasma half-life of 1.5 hrs) was 0.462 h⁻¹.

The values are drawn from patent US20210361566A1, “FORMULATIONS OF 5-HYDROXY TRYPTOPHAN (5-HTP) FOR BETTER BIOAVAILABILITY FOR VARIOUS INDICATIONS” (National University of Singapore, priority 2018, published 2021).
